Series [1] addresses T1, cyclooxygenase-1 (COX-1 enzyme) (Homo sapiens, UniProt P23219).
T1 construct: from tissue; host or cells: human whole blood without heparin (platelets) from healthy volunteers
The experiment in a line: Human whole blood in vitro activity assay, COX-1 (TXB2 by EIA). The note with it: read-out: IC50 (μg/mL) COX-1 (converted). It counts as cell-based. The method, then: (§1) Human whole blood in vitro activity study: inhibition of activity of cyclooxygenase-1 (COX-1 enzyme) and cyclooxygenase-2 (COX-2 enzyme) in human blood. […] The blood samples were divided into two parts: one was used for detecting COX-1 enzyme activity, and the other was used for detecting COX-2 enzyme activity. The compounds were dissolved in DMSO, and were prepared in advance into 2 μL solutions in respective concentrations of 500, 50, 5, 0.5, 0.05, 0.005, 0.0005 μg/mL. 200 μL whole blood without heparin was added in the tubes containing the compounds, and then incubated at 37° C. for 1 hour. The activity of COX-1 enzyme was detected by determining the amount of thromboxane B2 (TXB2) synthesized by platelet using an EIA kit. Samples tested without the compounds were negative controls. For COX-2, 200 μL whole blood with heparin was added in the tubes containing the compounds and in the tubes containing 10 μg/mL LPS. LPS control and blank control with solvent only were used respectively for determining the maximum value and the background value of the PGE2 produced therefrom. The samples were incubated at 37° C. for 24 hours, and then centrifuged to collect serum/plasma, which was stored at −80° C. for detection by an EIA kit. The EIA kit of Cayman Company was used, the amounts of TXB2 and PGE2 were determined in accordance to the manufacturer's instructions, and the activities of COX-1 and COX-2 were tested respectively.

For series [2], the target named is T2, cyclooxygenase-2 (COX-2 enzyme) (Homo sapiens, UniProt P35354).
T2 construct: from tissue; host or cells: heparinised human whole blood from healthy volunteers, stimulated with LPS
T2 sequence (P35354 18-604): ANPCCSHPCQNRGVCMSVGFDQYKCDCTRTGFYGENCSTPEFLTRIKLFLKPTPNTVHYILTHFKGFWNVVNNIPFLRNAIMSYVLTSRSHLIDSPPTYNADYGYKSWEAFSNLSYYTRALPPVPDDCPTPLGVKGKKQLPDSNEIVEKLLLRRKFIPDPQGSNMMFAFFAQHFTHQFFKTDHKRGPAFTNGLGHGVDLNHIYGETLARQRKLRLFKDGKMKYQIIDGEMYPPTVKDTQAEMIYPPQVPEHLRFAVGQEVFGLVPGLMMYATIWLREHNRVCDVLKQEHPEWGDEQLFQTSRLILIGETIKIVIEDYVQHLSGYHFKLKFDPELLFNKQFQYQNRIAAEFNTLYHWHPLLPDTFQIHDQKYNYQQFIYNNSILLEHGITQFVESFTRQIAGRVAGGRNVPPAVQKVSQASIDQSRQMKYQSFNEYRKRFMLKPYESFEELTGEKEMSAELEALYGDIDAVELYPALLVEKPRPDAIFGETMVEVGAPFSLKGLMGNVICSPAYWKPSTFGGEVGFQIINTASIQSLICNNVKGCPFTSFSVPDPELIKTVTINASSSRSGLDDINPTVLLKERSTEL
The series is described as follows: Human whole blood in vitro activity assay, COX-2 (LPS-induced PGE2 by EIA). The class given is cell-based. The note with it: for IC50: LPS, PGE2, read-out: IC50 (μg/mL) COX-2 (converted). As to the method: as §1

Series [3] deals with T3, COX-1 (Canis lupus familiaris, UniProt Q8HZR1).
T3 construct: in vitro activity study using beagle dog whole blood was conducted; from tissue; host or cells: beagle dog whole blood (platelets, by the same method as for human blood)
T3 sequence (Q8HZR1 28-603): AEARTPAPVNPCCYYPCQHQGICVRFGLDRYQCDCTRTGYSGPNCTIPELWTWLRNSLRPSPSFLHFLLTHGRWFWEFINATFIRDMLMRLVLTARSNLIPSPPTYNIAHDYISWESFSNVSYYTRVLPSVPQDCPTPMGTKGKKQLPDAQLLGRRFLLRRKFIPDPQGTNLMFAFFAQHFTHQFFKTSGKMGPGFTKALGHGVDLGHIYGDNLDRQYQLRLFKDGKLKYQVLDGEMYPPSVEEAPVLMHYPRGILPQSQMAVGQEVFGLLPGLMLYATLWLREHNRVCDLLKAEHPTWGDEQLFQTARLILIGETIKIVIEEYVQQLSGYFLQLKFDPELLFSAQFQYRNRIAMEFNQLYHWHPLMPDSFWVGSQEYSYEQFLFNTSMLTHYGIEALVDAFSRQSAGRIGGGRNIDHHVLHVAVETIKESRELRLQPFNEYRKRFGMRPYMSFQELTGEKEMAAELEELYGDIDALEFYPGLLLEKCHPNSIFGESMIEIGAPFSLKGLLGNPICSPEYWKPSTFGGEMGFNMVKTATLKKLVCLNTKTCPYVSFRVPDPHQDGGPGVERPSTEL
The series is described as follows: Dog whole blood in vitro activity assay, COX-1. The note with it: read-out: IC50 (μg/mL) COX-1 (converted). It counts as cell-based, beagle dog.

For series [4], the target named is T4, COX-2 (Canis lupus familiaris, UniProt Q8SPQ9).
T4 construct: in vitro activity study using beagle dog whole blood was conducted; from tissue; host or cells: beagle dog whole blood, stimulated with LPS (by the same method as for human blood)
T4 sequence (Q8SPQ9 18-604): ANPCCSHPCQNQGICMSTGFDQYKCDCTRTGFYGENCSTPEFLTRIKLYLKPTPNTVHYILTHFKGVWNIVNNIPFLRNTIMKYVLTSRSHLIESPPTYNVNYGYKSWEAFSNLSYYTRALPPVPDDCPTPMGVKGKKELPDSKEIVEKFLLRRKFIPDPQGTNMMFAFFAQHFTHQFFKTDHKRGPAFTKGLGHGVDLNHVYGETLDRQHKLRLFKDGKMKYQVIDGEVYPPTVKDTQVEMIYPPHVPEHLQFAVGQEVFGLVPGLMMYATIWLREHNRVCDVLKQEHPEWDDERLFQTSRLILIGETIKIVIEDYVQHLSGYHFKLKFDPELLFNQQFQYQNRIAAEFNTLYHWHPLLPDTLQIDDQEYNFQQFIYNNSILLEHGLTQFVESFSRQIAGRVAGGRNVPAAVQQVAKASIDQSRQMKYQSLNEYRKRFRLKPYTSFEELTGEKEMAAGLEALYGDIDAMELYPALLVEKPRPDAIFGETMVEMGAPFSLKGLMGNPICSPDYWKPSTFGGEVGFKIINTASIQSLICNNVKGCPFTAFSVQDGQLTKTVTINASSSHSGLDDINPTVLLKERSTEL
The series is described as follows: Dog whole blood in vitro activity assay, COX-2. It counts as cell-based, beagle dog. The note with it: for IC50: read-out: IC50 (μg/mL) COX-2 (converted).

Series [5] in a line: Pharmacokinetic study, intravenous, rats. It counts as in vivo. The note with it: male SD rats, IV 2 mg/kg. As to the method:
Cimicoxib (cimicoxib) was IV administrated to male SD rats in vivo [2 mg/kg, 2 mg/ml, menstruum: DMSO/PEG 400/30% HP-b-CD ([…])], T1/2 was 3.20 h. The half-life of compound 1 was longer than cimicoxib.

Some results are limits rather than exact numbers.

T1 sequence (P23219 24-599): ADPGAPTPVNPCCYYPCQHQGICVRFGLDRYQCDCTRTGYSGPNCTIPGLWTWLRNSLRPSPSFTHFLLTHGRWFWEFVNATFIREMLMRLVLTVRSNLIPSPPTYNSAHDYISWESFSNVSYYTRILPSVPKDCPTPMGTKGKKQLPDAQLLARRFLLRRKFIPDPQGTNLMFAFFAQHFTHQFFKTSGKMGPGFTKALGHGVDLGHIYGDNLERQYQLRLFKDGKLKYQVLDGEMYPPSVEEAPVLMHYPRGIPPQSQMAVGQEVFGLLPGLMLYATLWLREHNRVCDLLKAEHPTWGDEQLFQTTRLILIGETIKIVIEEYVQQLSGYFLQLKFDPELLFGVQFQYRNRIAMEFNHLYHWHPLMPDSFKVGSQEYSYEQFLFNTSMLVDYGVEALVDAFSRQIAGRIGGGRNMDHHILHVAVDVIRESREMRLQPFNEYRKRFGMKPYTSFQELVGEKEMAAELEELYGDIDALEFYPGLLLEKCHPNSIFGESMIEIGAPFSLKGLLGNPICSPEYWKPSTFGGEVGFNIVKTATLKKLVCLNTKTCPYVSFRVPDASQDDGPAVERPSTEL

On to `Cc1ccc(-c2c(Cl)ncn2-c2ccc(S(C)(=O)=O)cn2)cc1` [Compound 3, 2-(4-chloro-5-p-tolyl-1H-imidazol-1-yl)-5-(methylsulfonyl)pyridine], for which the IC50 is 19.7 µM in series [1], 0.259 µM in series [2], 30.2 µM in series [3] and 1.61 µM in series [4]. Also, the IC50COX-1/IC50COX-2 in series [2] amounted to 76.2; in series [4] it was 18.8.

With `COc1ccc(-c2c(Cl)ncn2-c2ccc(S(C)(=O)=O)cn2)cc1F` [Compound 6, 2-(4-chloro-5-(3-fluoro-4-methoxyphenyl)-1H-imidazol-1-yl)-5-(methylsulfonyl)pyridine], the IC50 in series [1] was 8.8 µM. Besides, in series [2], the IC50COX-1/IC50COX-2 is listed as 25.8 and the IC50 was 0.34 µM.

`CS(=O)(=O)c1ccc(-n2cncc2-c2ccccc2)nc1` [Compound 1E, 5-(methylsulfonyl)-2-(5-phenyl-1H-imidazol-1-yl)pyridine]: in series [1], the IC50 was 86.5 µM. In addition, in series [2], the IC50COX-1/IC50COX-2 was 11.6 and the IC50 is 7.45 µM.

As for `CS(=O)(=O)c1ccc(-n2cnc(Cl)c2-c2ccc(F)cc2)nc1` [Compound 2, 2-(4-chloro-5-(4-fluorophenyl)-1H-imidazol-1-yl)-5-(methylsulfonyl)pyridine], the IC50 in series [1] was 11.2 µM; in series [2] it was 0.512 µM; in series [3], 55.9 µM; in series [4], 2.62 µM. Besides, the IC50COX-1/IC50COX-2 in series [2] stood at 21.8; in series [4], 21.4.

Turning to `CS(=O)(=O)c1ccc(-n2cncc2-c2ccccc2)cn1` [Compound 8E, 2-(methylsulfonyl)-5-(5-phenyl-1H-imidazol-1-yl)pyridine], the IC50 in series [1] was 187 µM; in series [2], over 1670 µM.

With `COc1ccc(-c2c(Cl)ncn2-c2ccc(S(C)(=O)=O)nc2)cc1` [Compound 9, 5-(4-chloro-5-(4-methoxyphenyl)-1H-imidazol-1-yl)-2-(methylsulfonyl)pyridine], the IC50 in series [1] is 62.5 µM; in series [2], 0.253 µM; in series [3] it was 553 µM; in series [4], 2.31 µM. Also, the IC50COX-1/IC50COX-2 in series [2] is 247.2; in series [4], 239.6.

Consider `COc1ccc(-c2c(Cl)ncn2-c2ccc(S(C)(=O)=O)cn2)cc1` [Compound 5, 2-(4-chloro-5-(4-methoxyphenyl)-1H-imidazol-1-yl)-5-(methylsulfonyl)pyridine], for which the IC50 in series [1] is 0.632 µM; in series [2], 0.137 µM. In series [2], the IC50COX-1/IC50COX-2 turned out to be 4.6.

With `CS(=O)(=O)c1ccc(-n2cnc(Cl)c2-c2cccnc2)nc1` [Compound 7, 2-(4-chloro-5-(pyridin-3-yl)-1H-imidazol-1-yl)-5-(methylsulfonyl)pyridine], the IC50 is 54 µM in series [1] and 2.84 µM in series [2]. The IC50COX-1/IC50COX-2 in series [2] is 19.0.

For the compound `CS(=O)(=O)c1ccc(-n2cnc(Cl)c2-c2cccnc2)cn1` [Compound 11, 5-(4-chloro-5-(pyridin-3-yl)-1H-imidazol-1-yl)-2-(methylsulfonyl)pyridine], the IC50 in series [1] was over 1490 µM. In series [2], the IC50COX-1/IC50COX-2 is reported as over 12.6 and the IC50 is 118 µM.

For orientation: AUC(0-t) means the area under the concentration-time curve up to a stated or last time point. In general, clearance refers to the rate of elimination divided by the concentration. Low values mean inefficient removal, high ones efficient removal. The half-life is the time in which the quantity being followed falls by half. High values mean slow loss, low ones fast loss. Take `COc1ccc(-c2c(Cl)ncn2-c2ccc(S(N)(=O)=O)cc2)cc1F` [Cimicoxib, reference compound]: the IC50 in series [1] was 4.16 µM; in series [2] it was 0.471 µM; in series [3], 15.6 µM; in series [4], 1.65 µM. For the same compound, the IC50COX-1/IC50COX-2 in series [2] is given as 8.8; in series [4], 9.5. Also, in series [5], the t1/2 was determined as 3.20 ± 0.80 h. In series [5] (rat, in vivo), this compound gave an AUC(0-t) of 12000 ± 4400 ng·h/mL. Moreover, the C0 in series [5] (rat, in vivo) amounted to 1980 ± 140 ng/mL. Further, the clearance in series [5] (rat, in vivo) turned out to be 2.99 ± 0.92 mL/min/kg. The half-life in series [5] (rat, in vivo, 2 mg/ml, DMSO/PEG 400/30% HP-b-CD) was 3.2 h. The Vd in series [5] (rat, in vivo, read-out: Vss) was determined as 0.773 ± 0.145 L/kg.
